US11377441B2, “Covalent inhibitors of KRAS” (Araxes Pharma LLC, priority 2017, dated 2022)

target: T1, KRAS G12C 1-169, his-tagged protein, GDP-loaded (Homo sapiens, UniProt P01116, G12C); experiment: Biochemical assay: covalent modification of KRAS G12C measured by mass spectrometry (RapidFire/TOF or Q-Exactive); format: binding; conditions: covalent binding to (modification of) KRAS G12C after a ten minute incubation period
T1 construct: KRAS G12C 1-169, his-tagged protein, GDP-loaded
Outline: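 GDP-loaded KRAS G12C 1-169 (his-tagged) at 2 μM or 0.5 μM in 20 mM Hepes, 150 mM NaCl, 1 mM MgCl2, incubated with compound at 100, 30 or 10 μM at room temperature for 10 min, 30 min, 2 h or 24 h, then quenched with formic acid. Intact-protein LC-MS, deconvolved; percent modification from modified versus unmodified protein.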

SMILES	Binding %
C=CC(=O)N1[C@H](C)CN(c2nc(N3CC(N(C)C)C3)nc3c(F)c(-c4c(C)ccc5[nH]nc(C6CC6)c45)c(Cl)cc23)C[C@@H]1C (atropisomer, axis not shown) [Compound 134, 1-((2S,6R)-4-((R)-6-chloro-7-(3-cyclopropyl-5-methyl-1H-indazol-4-yl)-2-(3-(dimethylamino)azetidin-1-yl)-8-fluoroquinazolin-4-yl)-2,6-dimethylpiperazin-1-yl)prop-2-en-1-one]	+++ (+++ indicates binding activity greater than 80%)
C=CC(=O)N1C[C@H](C)N(c2nc(OCCN3CCC(F)(F)C3)nc3c(F)c(-c4c(C)ccc5cnn(C)c45)c(Cl)cc23)C[C@H]1C (atropisomer, axis not shown) [Compound 135, 1-((2R,5S)-4-((S)-6-chloro-2-(2-(3,3-difluoropyrrolidin-1-yl)ethoxy)-7-(1,6-dimethyl-1H-indazol-7-yl)-8-fluoroquinazolin-4-yl)-2,5-dimethylpiperazin-1-yl)prop-2-en-1-one]	+ (+ indicates binding activity greater than 0% and up to 50%)
C=CC(=O)N1C[C@H](C)N(c2nc(OCCN3CCC(F)(F)C3)nc3c(F)c(-c4c(C)ccc5cnn(C)c45)c(Cl)cc23)C[C@H]1C (atropisomer, axis not shown) [Compound 136, 1-((2R,5S)-4-((R)-6-chloro-2-(2-(3,3-difluoropyrrolidin-1-yl)ethoxy)-7-(1,6-dimethyl-1H-indazol-7-yl)-8-fluoroquinazolin-4-yl)-2,5-dimethylpiperazin-1-yl)prop-2-en-1-one]	+++ (+++ indicates binding activity greater than 80%)
C=CC(=O)N1C[C@H](C)N(c2nc(N3CC(NC)C3)nc3c(F)c(-c4c(C)ccc5cnn(C)c45)c(Cl)cc23)C[C@H]1C (atropisomer, axis not shown) [Compound 139, 1-((2R,5S)-4-((S)-6-chloro-7-(1,6-dimethyl-1H-indazol-7-yl)-8-fluoro-2-(3-(methylamino)azetidin-1-yl)quinazolin-4-yl)-2,5-dimethylpiperazin-1-yl)prop-2-en-1-one]	+ (+ indicates binding activity greater than 0% and up to 50%)
C=CC(=O)N1[C@H](C)CN(c2nc(N3CC(N(C)C)C3)nc3c(F)c(-c4c(C)ccc5cnn(C)c45)c(Cl)cc23)C[C@@H]1C (atropisomer, axis not shown) [Compound 141, 1-((2S,6R)-4-((S)-6-chloro-7-(1,6-dimethyl-1H-indazol-7-yl)-2-(3-(dimethylamino)azetidin-1-yl)-8-fluoroquinazolin-4-yl)-2,6-dimethylpiperazin-1-yl)propan-2-en-1-one]	+ (+ indicates binding activity greater than 0% and up to 50%)
C=CC(=O)N1[C@H](C)CN(c2nc(N3CC(N(C)C)C3)nc3c(F)c(-c4c(C)ccc5cnn(C)c45)c(Cl)cc23)C[C@@H]1C (atropisomer, axis not shown) [Compound 142, 1-((2S,6R)-4-((R)-6-chloro-7-(1,6-dimethyl-1H-indazol-7-yl)-2-(3-(dimethylamino)azetidin-1-yl)-8-fluoroquinazolin-4-yl)-2,6-dimethylpiperazin-1-yl)prop-2-en-1-one]	+++ (+++ indicates binding activity greater than 80%)
C=CC(=O)N1CCN(c2nc(N3CC(N(C)C)C3)nc3c(F)c(-c4c(C)ccc5cnn(C)c45)c(Cl)cc23)C[C@H]1C (atropisomer, axis not shown) [Compound 143, 1-((R)-4-((S)-6-chloro-7-(1,6-dimethyl-1H-indazol-7-yl)-2-(3-(dimethylamino)azetidin-1-yl)-8-fluoroquinazolin-4-yl)-2-methylpiperazin-1-yl)prop-2-en-1-one]	+ (+ indicates binding activity greater than 0% and up to 50%)
C=CC(=O)N1CCN(c2nc(N3CC(N(C)C)C3)nc3c(F)c(-c4c(C)ccc5cnn(C)c45)c(Cl)cc23)C[C@H]1C (atropisomer, axis not shown) [Compound 144, 1-((R)-4-((R)-6-chloro-7-(1,6-dimethyl-1H-indazol-7-yl)-2-(3-(dimethylamino)azetidin-1-yl)-8-fluoroquinazolin-4-yl)-2-methylpiperazin-1-yl)prop-2-en-1-one]	+++ (+++ indicates binding activity greater than 80%)
C=CC(=O)N1C[C@H](C)N(c2nc(OCCN3CC(F)(F)C3)nc3c(F)c(-c4c(C)ccc5cnn(C)c45)c(Cl)cc23)C[C@H]1C (atropisomer, axis not shown) [Compound 146, 1-((2R,5S)-4-((S)-6-chloro-2-(2-(3,3-difluoroazetidin-1-yl)ethoxy)-7-(1,6-dimethyl-1H-indazol-7-yl)-8-fluoroquinazolin-4-yl)-2,5-dimethylpiperazin-1-yl)prop-2-en-1-one]	+ (+ indicates binding activity greater than 0% and up to 50%)
C=CC(=O)N1C[C@H](C)N(c2nc(OCCN3CC(F)(F)C3)nc3c(F)c(-c4c(C)ccc5cnn(C)c45)c(Cl)cc23)C[C@H]1C (atropisomer, axis not shown) [Compound 147, 1-((2R,5S)-4-((R)-6-chloro-2-(2-(3,3-difluoroazetidin-1-yl)ethoxy)-7-(1,6-dimethyl-1H-indazol-7-yl)-8-fluoroquinazolin-4-yl)-2,5-dimethylpiperazin-1-yl)prop-2-en-1-one]	+++ (+++ indicates binding activity greater than 80%)
C=CC(=O)N1C[C@H](C)N(c2nc(N3CC(N(C)C)C3)nc3c(F)c(-c4c(C)ccc5cnn(C6CC6)c45)c(Cl)cc23)C[C@H]1C (atropisomer, axis not shown) [Compound 149, 1-((2R,5S)-4-((S)-6-chloro-7-(1-cyclopropyl-6-methyl-1H-indazol-7-yl)-2-(3-(dimethylamino)azetidin-1-yl)-8-fluoroquinazolin-4-yl)-2,5-dimethylpiperazin-1-yl)prop-2-en-1-one]	+ (+ indicates binding activity greater than 0% and up to 50%)
C=CC(=O)N1C[C@H](C)N(c2nc(N3CC(N(C)C)C3)nc3c(F)c(-c4c(C)ccc5cnn(C6CC6)c45)c(Cl)cc23)C[C@H]1C (atropisomer, axis not shown) [Compound 150, 1-((2R,5S)-4-((R)-6-chloro-7-(1-cyclopropyl-6-methyl-1H-indazol-7-yl)-2-(3-(dimethylamino)azetidin-1-yl)-8-fluoroquinazolin-4-yl)-2,5-dimethylpiperazin-1-yl)prop-2-en-1-one]	+++ (+++ indicates binding activity greater than 80%)
C=CC(=O)N1[C@H](C)CN(c2nc(N3CC(N(C)C)C3)nc3c(F)c(-c4c(C)ccc5[nH]nc(C)c45)c(Cl)cc23)C[C@@H]1C (atropisomer, axis not shown) [Compound 151, 1-((2S,6R)-4-((S)-6-chloro-7-(3,5-dimethyl-1H-indazol-4-yl)-2-(3-(dimethylamino)azetidin-1-yl)-8-fluoroquinazolin-4-yl)-2,6-dimethylpiperazin-1-yl)prop-2-en-1-one]	+ (+ indicates binding activity greater than 0% and up to 50%)
C=CC(=O)N1[C@H](C)CN(c2nc(N3CC(N(C)C)C3)nc3c(F)c(-c4c(C)ccc5[nH]nc(C)c45)c(Cl)cc23)C[C@@H]1C (atropisomer, axis not shown) [Compound 152, 1-((2S,6R)-4-((R)-6-chloro-7-(3,5-dimethyl-1H-indazol-4-yl)-2-2(3-(dimethylamino)azetidin-1-yl)-8-fluoroquinazolin-4-yl)-2,6-dimethylpiperazin-1-yl)prop-2-en-1-one]	+++ (+++ indicates binding activity greater than 80%)
C=CC(=O)N1C[C@H](C)N(c2nc(OCCCN(C)C)nc3c(F)c(-c4c(C)ccc5cnn(C)c45)c(Cl)cc23)C[C@H]1C (atropisomer, axis not shown) [Compound 153, 1-((2R,5S)-4-((S)-6-chloro-7-(1,6-dimethyl-1H-indazol-7-yl)-2-(3-(dimethylamino)pro-poxy)-8-fluoroquinazolin-4-yl)-2,5-dimethylpiperazin-1-yl)prop-2-en-1-one]	+ (+ indicates binding activity greater than 0% and up to 50%)
C=CC(=O)N1C[C@H](C)N(c2nc(OCCCN(C)C)nc3c(F)c(-c4c(C)ccc5cnn(C)c45)c(Cl)cc23)C[C@H]1C (atropisomer, axis not shown) [Compound 154, 1-((2R,5S)-4-((R)-6-chloro-7-(1,6-dimethyl-1H-indazol-7-yl)-2-(3-(dimethylamino)pro-poxy)-8-fluoroquinazolin-4-yl)-2,5-dimethylpiperazin-1-yl)prop-2-en-1-one]	+++ (+++ indicates binding activity greater than 80%)
C=CC(=O)N1C[C@H](C)N(c2nc(N3CC(N(C)C)C3)nc3c(F)c(-c4c(F)ccc5cnn(C)c45)c(Cl)cc23)C[C@H]1C (atropisomer, axis not shown) [Compound 155, 1-((2R,5S)-4-((R)-6-chloro-2-(3-(dimethylamino)azetidin-1-yl)-8-fluoro-7-(6-fluoro-1-methyl-1H-indazol-7-yl)quinazolin-4-yl)-2,5-dimethylpiperazin-1-yl)prop-2-en-1-one]	+ (+ indicates binding activity greater than 0% and up to 50%)
C=CC(=O)N1C[C@H](C)N(c2nc(N3CC(N(C)C)C3)nc3c(F)c(-c4c(F)ccc5cnn(C)c45)c(Cl)cc23)C[C@H]1C (atropisomer, axis not shown) [Compound 156, 1-((2R,5S)-4-((S)-6-chloro-2-(3-(dimethylamino)azetidin-1-yl)-8-fluoro-7-(6-fluoro-1-methyl-1H-indazol-7-yl)quinazolin-4-yl)-2,5-dimethylpiperazin-1-yl)prop-2-en-1-one]	+++ (+++ indicates binding activity greater than 80%)
